Data set [1] deals with C1498 acute myeloid leukemia cells. Put plainly: survival of mice engrafted with C1498 acute myeloid leukemia. Type of data set: in vivo, mouse. Further details: percentage of survival: concentration or dose not given beside the values. The note with it: for Median survival time / Percentage alive day 60: 1 x 10E6 C1498 i.v. on day 0, 10 ug peptide s.c. daily on days 6-12. As for the experimental part: B6 (CD45.2, H-2K^b) mice were administered C1498 1×10^6/mouse through tail vein. […] Survival of the mice was observed daily. Data were pooled from 3 replicated experiments.
B6 (CD45.2, H-2K^b) mice were administered C1498 1×10^6/mouse through tail vein. […] Survival of the mice was observed daily. Survival of the mice were pooled from 3 replicated experiments and analyzed by log-rank test compared with the survival of mice treated with scrambled peptide.
B6 SJL (CD45.1, H-2K^b) mice were administered C1498 (CD45.2 H-2K^b) 1×10^6/mouse through tail vein. […] The mice were bled weekly from the submandibular vein, starting from day 6, prior to the administration of peptides. Antibodies to CD45.2 identified myeloid leukemia cells and antibodies to CD45.1 identified murine leukocytes of the host.
(§1) VIP-related peptides tested in silico for predicted binding affinities to human VPAC1 and VPAC2 (Creative Biolabs). Docking scores show predicted free energy change associated with peptide binding. Note that a greater negative score is predicted to be associated with higher binding affinity. Based upon an initial screen of 300 peptides for binding affinity to VPAC1 and screening a subset of 100 peptides for binding affinity to VPAC2, a select group of peptides were synthesized and tested for their ability to stimulate proliferation of luciferase+ mouse T cells in vitro. The lowest concentration of peptide that led to maximal luminescence is shown. Proliferation data represents the relative level of luminescence from quadruplicate wells containing 1×10E5 T cells/well in a 96 well tissue culture plate stimulated for 96 hours with plate-bound anti-CD3 antibodies. Confirmatory in vivo testing of select peptides was then performed based upon their ability to induce autologous anti-leukemia responses in C57Bl/6 mice that had been previously injected with 1×10E6 C1498 acute myeloid leukemia cells. Leukemia cells were injected on day 0, 10 ug peptide was injected s.c. daily on days 6-12. The predicted binding affinity to VPAC1 and/or VPAC2 was associated with enhanced activity in stimulating mouse T cell proliferation and anti-leukemia activity in mice.
To test the ability of the disclosed VIP-R antagonists to effect survival to acute myeloid leukemia survival, B6 (CD45.2, H-2K^b) mice were administered C1498 1×10^6/mouse through tail vein. […] Survival of the mice was observed daily.

Data set [2] can be described thus: toxicity in immunologically naive C57BL/6 mice. Type of data set: in vivo. Conditions: for H&E staining of colon and lung tissue: FIG. 29c-29d; for overall survival, activity levels or weight of mice: daily s.c. for 10 days, same dose as anti-cancer protocol, FIG. 29a; for toxicity in C57BL/6 mice: daily s.c. injection for 10 days, analyzed day 11, FIG. 29. From the text: C57BL/6 mice received daily subcutaneous injection of ANT008 or ANT308 for 10 days (n=5 per group) and analyzed for evidence of toxicity on day 11. (FIG. 29A) Body weight in grams during the duration of drug administration; (FIG. 29B) Number of WBCs, RBCs and platelets in blood as per complete blood count (left) proportions of T cells, B cells, NK cells, DCs and MDSCs in spleen as identified by flow cytometry (right) are plotted. Representative H&E stained sections of (FIG. 29C) colon (top), lungs (bottom) and (FIG. 29D) liver are shown. Arrows in FIG. 29D show the focal hepatic lesions in liver. […] C57BL/6 mice received daily subcutaneous injection of 30 ug of ANT308 (n=6) or a combination of 30 ug of ANT308 daily along with 200 ug of anti-PD1 every 3 days (n=6), for a duration of 4 days. Mice receiving scrambled peptide and isotype IgG served as control (n=4). (FIG. 29E) Weight of the mice, (FIG. 29F) complete blood count (CBC) and (FIG. 29G) serum chemistries after 4 days of treatment are plotted. P values in FIGS. 29B, 29E, 29F, and 29G were calculated by ANOVA followed by Dunnett's post-test. Error bars represent mean and standard deviation. *p<0.05, **p<0.01.
To evaluate the effect of VIP-R-mediated signaling inhibition on the growth of PDAC tumors in vivo, three different murine PDAC tumors (KPC-Luc, MT5 and Panc02) were implanted in syngeneic immunocompetent C57BL/6 mice. After tumors were palpable, mice were randomly allocated to treatment with VIP-R antagonists and/or anti-PD-1 monoclonal antibody, or control groups that received scrambled peptide or isotype-matched IgG. […] In addition to the antitumor efficacy, the safety of VIP-R antagonists in immunologically naïve mice was confirmed (FIGS. 29a-29g).
Histology. All tissues for histology were fixed at 4° C. for 2-3 days in 4% paraformaldehyde in PBS, embedded in paraffin and cut into 5-μm thick sections. Slides were deparaffinized with EZ-Prep (#05279771001, Ventana, Tucson, AZ) and then were antigen retrieved for 64 minutes with CC1 reagent (#950-500, Ventana, Tucson, AZ). Mouse anti-VPAC1 and anti-VPAC2 from Sigma Aldrich (St. Louis, MO) diluted at 1:500 or rabbit anti-cytokeratin-19 (Abcam, Cambridge, MA) diluted at 1:500 were applied and incubated for 40 minutes. DISCOVERY OmniMap anti-mouse or anti-rabbit HRP was applied and incubated for 12 minutes. The detection was completed in combination with DISCOVERY ChromoMap DAB kit as per manufacturer's recommendations. Pancreas harvested from mice with orthotopically implanted KPC-Luc tumors or colon, liver and inflated lungs harvested from naïve C57BL/6 mice receiving ANT008 or ANT308 were formalin-fixed and paraffin embedded before being stained with H&E (Leica 560 MX, Wetzlar, Germany) or Masson's Trichrome (Polyscientific Inc., Bay Shore, NY). All slides were dehydrated, cover-slipped and scanned on Hamamatsu Nanozoomer 2.0 HT at 40× and reviewed by a pathologist.

Data set [3] relates to luciferase+ mouse T cells. Kind of data set: proliferation of luciferase+ mouse T cells in vitro (plate-bound anti-CD3, luminescence). The data set is classed as cell-based. Conditions: 96 hours; for lowest concentration of peptide that led to maximal luminescence: luc+ T cell proliferation, plate-bound anti-CD3; for luc+ T cell proliferation: relative luminescence, quadruplicate wells, plate-bound anti-CD3, daily addition of peptide, at the concentration in brackets.
Excerpt: as §1

The text below walks through data of patent publication US20240247048A1 (EMORY UNIVERSITY, priority 2021, published 2024).

“Also recorded” adds a separate entry of the source.

KPRRPYTSDYTRLRKQMAVKKYLNLILN [ANT308]: in data set [1], the “Median survival time” value is 34 days and the “Percentage alive day 60” value was found to be 40%. In addition, in data set [1] (FIGS. 39 and 40), the “clearance of C1498 leukemia and long-term survival” value is “dose-dependent clearance; also recorded: schedule-dependent clearance”. In addition, in data set [2], the “H&E staining of colon and lung tissue” value was “did not show lymphocytic infiltrates or histopathology to suggest auto-immunity”; the “overall survival, activity levels or weight of mice” value was “did not affect”; the “toxicity in C57BL/6 mice” value is “no adverse toxicity”. Moreover, in data set [3], the “lowest concentration of peptide that led to maximal luminescence” value turned out to be 3 µM and the “luc+ T cell proliferation” value was 109% + 8%.

KPRRPYTDNYTRLRKQMAVKKYLNLILN [ANT008]: in data set [1], the “Median survival time” value is given as 35 days and the “Percentage alive day 60” value was 16%. Further, the percentage of survival in data set [1] (FIG. 3, leukemia-bearing mice treated with peptide) is on record as 16%. Moreover, in data set [2], the “H&E staining of colon and lung tissue” value was “did not show lymphocytic infiltrates or histopathology to suggest auto-immunity”; the “overall survival, activity levels or weight of mice” value is recorded as “did not affect”; the “toxicity in C57BL/6 mice” value is reported as “no adverse toxicity”. Moreover, in data set [3], the “lowest concentration of peptide that led to maximal luminescence” value worked out at 1 µM and the “luc+ T cell proliferation” value is 185% + 24%.
